Reference: patent US20210255193A1, “LYSINE REACTIVE PROBES AND USES THEREOF” (The Scripps Research Institute, priority 2017, published 2021)

Legend:
Assay in all cases: competitive isoTOP-ABPP
Format in all cases: binding
DCTN2 Dynactin subunit 2 = target: T1, DCTN2 Dynactin subunit 2 (Homo sapiens, UniProt Q13561); details: for isoTOP-ABPP ratio, lysine Q13561_K175: 50 uM_231_sol_in vitro
T1 construct: isoTOP-ABPP experiments performed in cell lysates (in vitro); endogenous in cells; host or cells: soluble proteome of human cancer cell lines (MDA-MB-231, Ramos, Jurkat)
Method in brief: (§1)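 Cell lysate treated in vitro with fragments (50 μM activated esters, 100 μM guanidinylating agents) or DMSO, labelled 1 h at ambient temperature with 0.1 mM STP-alkyne, CuAAC-tagged with light/heavy TEV tags, analysed by MS. R = DMSO/compound MS1 peak-area ratio; lysines with R≥4 called liganded.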

[1] = target: T2, ERAP1 Endoplasmic reticulum aminopeptidase 1 (Homo sapiens, UniProt Q9NZ08); details: for isoTOP-ABPP ratio, lysine Q9NZ08_K685: 50 uM_231_sol_in vitro
T2 construct: endogenous in cells; host or cells: MDA-MB-231 lysate
Method in brief: as §1

[2] = target: T3, GLUD1 Glutamate dehydrogenase 1, mitochondrial (Homo sapiens, UniProt P00367); details: for isoTOP-ABPP ratio, lysine P00367_K480: 50 uM_231_sol_in vitro, possible other lysine P00367_K477
T3 construct: isoTOP-ABPP experiments performed in cell lysates (in vitro); endogenous in cells; host or cells: MDA-MB-231 soluble lysate
Method in brief: as §1

[3] = target: T4, KIAA1967 DBIRD complex subunit KIAA1967 (Homo sapiens, UniProt Q8N163); details: for isoTOP-ABPP ratio, lysine Q8N163_K97 / isoTOP-ABPP ratio, lysine Q8N163_K112: 50 uM_231_sol_in vitro; for R value (DMSO/fragment) for probe 1 labeling / isoTOP-ABPP reactivity ratio at lysine Q8N163_K97 / isoTOP-ABPP reactivity ratio at lysine Q8N163_K112: 50 uM, 231 sol, in vitro
T4 construct: isoTOP-ABPP experiments performed in cell lysates (in vitro); endogenous in cells; host or cells: soluble proteome of human cancer cell lines (MDA-MB-231; Ramos and Jurkat also prepared)
Method in brief: as §1

[4] = target: T5, MRPS24 28S ribosomal protein S24, mitochondrial (Homo sapiens, UniProt Q96EL2); details: for isoTOP-ABPP ratio, lysine Q96EL2_K94: 50 uM_231_sol_in vitro
T5 construct: isoTOP-ABPP experiments performed in cell lysates (in vitro); endogenous in cells; host or cells: soluble proteome of human cancer cell lines (MDA-MB-231; Ramos and Jurkat also prepared)
Method in brief: as §1

[5] = target: T6, NAA25 N-alpha-acetyltransferase 25, NatB auxiliary subunit (Homo sapiens, UniProt Q14CX7); details: for isoTOP-ABPP ratio, lysine Q14CX7_K575: 50 uM_231_sol_in vitro
T6 construct: isoTOP-ABPP experiments performed in cell lysates (in vitro); endogenous in cells; host or cells: soluble proteome of human cancer cell lines (MDA-MB-231; Ramos and Jurkat also prepared)
Method in brief: as §1

[6] = target: T7, TRMT10C Mitochondrial ribonuclease P protein 1 (Homo sapiens, UniProt Q7L0Y3)
T7 construct: isoTOP-ABPP experiments performed in cell lysates (in vitro); endogenous in cells; host or cells: soluble proteome of human cancer cell lines (MDA-MB-231; Ramos and Jurkat also prepared)
T7 sequence (Q7L0Y3 40-403): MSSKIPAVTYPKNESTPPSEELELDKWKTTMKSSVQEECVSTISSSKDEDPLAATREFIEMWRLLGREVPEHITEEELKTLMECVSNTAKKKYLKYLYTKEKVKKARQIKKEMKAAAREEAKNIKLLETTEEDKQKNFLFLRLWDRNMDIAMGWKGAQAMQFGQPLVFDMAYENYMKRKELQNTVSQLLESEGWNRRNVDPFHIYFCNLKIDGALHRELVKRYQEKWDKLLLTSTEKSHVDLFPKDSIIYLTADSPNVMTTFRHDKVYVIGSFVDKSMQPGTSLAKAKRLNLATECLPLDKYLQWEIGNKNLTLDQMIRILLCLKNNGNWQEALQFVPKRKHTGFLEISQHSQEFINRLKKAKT
Method in brief: as §1

T6 sequence (Q14CX7 whole entry): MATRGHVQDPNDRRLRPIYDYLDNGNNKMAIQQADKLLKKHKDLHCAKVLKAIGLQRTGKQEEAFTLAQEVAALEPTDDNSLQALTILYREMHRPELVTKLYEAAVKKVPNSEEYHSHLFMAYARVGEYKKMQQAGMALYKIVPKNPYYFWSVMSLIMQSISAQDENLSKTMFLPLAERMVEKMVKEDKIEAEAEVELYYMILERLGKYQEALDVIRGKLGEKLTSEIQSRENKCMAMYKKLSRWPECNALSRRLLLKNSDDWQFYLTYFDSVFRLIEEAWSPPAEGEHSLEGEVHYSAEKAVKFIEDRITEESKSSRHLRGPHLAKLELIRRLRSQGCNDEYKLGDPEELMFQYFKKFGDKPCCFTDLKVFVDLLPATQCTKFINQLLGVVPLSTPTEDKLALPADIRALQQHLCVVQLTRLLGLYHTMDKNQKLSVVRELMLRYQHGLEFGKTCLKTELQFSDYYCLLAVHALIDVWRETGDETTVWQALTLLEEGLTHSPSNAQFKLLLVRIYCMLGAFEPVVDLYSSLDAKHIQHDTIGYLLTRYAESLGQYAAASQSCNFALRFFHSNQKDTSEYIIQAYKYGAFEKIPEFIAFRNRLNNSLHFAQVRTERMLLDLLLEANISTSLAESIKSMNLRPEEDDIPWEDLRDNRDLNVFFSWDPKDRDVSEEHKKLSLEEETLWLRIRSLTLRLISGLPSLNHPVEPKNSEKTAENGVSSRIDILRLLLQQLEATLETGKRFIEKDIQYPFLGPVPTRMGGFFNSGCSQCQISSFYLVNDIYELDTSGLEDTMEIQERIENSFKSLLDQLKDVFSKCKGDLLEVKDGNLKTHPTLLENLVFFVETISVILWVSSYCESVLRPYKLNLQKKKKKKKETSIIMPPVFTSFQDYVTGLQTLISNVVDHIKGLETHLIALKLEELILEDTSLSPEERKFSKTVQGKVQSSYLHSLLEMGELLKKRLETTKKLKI
T4 sequence (Q8N163 whole entry, the tested form may be a part, one chain of several): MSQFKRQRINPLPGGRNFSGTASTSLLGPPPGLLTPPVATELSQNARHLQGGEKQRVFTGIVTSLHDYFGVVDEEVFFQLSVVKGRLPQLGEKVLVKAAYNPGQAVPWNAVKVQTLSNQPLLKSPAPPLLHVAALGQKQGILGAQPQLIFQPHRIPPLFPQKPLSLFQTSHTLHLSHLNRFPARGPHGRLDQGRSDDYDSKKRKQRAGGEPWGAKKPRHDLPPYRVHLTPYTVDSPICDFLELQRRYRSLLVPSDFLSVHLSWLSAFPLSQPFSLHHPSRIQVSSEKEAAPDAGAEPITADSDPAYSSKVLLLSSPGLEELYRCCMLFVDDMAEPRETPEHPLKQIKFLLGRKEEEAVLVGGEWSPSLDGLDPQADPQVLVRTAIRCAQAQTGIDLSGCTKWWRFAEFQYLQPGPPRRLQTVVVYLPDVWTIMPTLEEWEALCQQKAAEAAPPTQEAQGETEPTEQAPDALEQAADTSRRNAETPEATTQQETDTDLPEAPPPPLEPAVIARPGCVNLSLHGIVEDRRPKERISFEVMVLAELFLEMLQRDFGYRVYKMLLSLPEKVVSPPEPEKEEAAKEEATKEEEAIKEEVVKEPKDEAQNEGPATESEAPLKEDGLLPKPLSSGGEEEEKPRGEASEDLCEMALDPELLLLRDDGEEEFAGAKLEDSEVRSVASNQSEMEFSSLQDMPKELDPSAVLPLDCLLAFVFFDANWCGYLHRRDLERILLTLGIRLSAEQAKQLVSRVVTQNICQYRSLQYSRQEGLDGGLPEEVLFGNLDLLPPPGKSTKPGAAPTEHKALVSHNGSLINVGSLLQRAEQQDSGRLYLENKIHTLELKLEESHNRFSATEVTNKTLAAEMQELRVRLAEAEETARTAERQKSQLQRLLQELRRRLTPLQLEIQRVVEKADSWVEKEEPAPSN
T3 sequence (P00367 54-558): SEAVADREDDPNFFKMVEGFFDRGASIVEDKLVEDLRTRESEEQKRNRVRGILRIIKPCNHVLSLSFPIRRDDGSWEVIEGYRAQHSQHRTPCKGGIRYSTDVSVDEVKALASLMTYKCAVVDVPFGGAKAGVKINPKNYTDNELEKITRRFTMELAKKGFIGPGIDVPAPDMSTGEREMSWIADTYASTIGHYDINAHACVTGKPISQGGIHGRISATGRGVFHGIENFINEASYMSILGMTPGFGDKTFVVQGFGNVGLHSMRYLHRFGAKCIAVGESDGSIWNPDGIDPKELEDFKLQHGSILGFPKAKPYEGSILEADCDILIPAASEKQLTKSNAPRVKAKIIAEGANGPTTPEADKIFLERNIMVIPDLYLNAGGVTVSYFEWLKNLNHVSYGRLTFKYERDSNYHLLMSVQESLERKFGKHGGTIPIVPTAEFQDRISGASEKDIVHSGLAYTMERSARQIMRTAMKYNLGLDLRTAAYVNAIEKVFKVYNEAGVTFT
T2 sequence (Q9NZ08 whole entry): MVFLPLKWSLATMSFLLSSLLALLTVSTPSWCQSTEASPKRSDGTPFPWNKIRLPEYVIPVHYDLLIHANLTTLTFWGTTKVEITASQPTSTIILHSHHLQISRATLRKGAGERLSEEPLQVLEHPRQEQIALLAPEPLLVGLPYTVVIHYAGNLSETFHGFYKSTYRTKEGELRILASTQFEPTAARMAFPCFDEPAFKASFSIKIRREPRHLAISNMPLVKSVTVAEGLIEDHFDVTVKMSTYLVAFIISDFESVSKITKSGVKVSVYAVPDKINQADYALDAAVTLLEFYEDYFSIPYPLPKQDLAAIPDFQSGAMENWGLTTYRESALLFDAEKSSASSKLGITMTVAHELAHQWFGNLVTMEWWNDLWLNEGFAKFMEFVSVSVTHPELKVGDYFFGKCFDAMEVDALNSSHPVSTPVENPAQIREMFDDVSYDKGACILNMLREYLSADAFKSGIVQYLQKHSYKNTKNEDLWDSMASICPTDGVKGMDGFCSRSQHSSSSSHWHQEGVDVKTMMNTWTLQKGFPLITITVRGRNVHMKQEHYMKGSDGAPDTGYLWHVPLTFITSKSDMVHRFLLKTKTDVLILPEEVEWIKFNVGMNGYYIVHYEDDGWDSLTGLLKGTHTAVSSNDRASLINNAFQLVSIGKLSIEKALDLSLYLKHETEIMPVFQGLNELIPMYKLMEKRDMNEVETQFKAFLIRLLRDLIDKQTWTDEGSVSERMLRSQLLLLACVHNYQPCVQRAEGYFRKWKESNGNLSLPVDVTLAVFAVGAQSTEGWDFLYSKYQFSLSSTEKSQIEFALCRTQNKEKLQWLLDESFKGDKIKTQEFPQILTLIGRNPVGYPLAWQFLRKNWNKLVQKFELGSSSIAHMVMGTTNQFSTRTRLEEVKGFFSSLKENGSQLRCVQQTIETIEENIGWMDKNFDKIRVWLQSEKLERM
T1 sequence (Q13561 whole entry): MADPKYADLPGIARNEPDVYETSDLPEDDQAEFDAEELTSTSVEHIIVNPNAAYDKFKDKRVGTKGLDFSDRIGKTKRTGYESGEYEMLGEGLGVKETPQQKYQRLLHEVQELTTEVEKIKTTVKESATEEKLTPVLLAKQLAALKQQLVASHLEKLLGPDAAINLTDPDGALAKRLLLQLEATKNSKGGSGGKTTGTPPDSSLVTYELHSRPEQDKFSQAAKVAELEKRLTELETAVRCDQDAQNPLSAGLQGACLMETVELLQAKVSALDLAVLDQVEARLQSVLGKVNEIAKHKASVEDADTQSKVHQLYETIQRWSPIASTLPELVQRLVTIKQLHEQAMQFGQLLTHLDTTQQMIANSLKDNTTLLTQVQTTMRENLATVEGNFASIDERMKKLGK

Row | Structure (SMILES) | isoTOP-ABPP reactivity ratio at lysine Q13561_K175 (DCTN2 Dynactin subunit 2; 50 uM, 231 sol, in vitro) | isoTOP-ABPP reactivity ratio at lysine Q9NZ08_K685 ([1]; 50 uM, 231 sol, in vitro) | isoTOP-ABPP reactivity ratio at lysine P00367_K480 ([2]; 50 uM, 231 sol, in vitro) | isoTOP-ABPP reactivity ratio at lysine Q8N163_K97 [3] | isoTOP-ABPP reactivity ratio at lysine Q8N163_K112 [3] | isoTOP-ABPP reactivity ratio at lysine Q96EL2_K94 ([4]; 50 uM, 231 sol, in vitro) | isoTOP-ABPP reactivity ratio at lysine Q14CX7_K575 ([5]; 50 uM, 231 sol, in vitro) | further results
1 | O=C(Oc1c(F)c(F)cc(F)c1F)c1cc(C(F)(F)F)cc(C(F)(F)F)c1 [fragment 48, 2,3,5,6-Tetrafluorophenyl 3,5-bis(trifluoromethyl)benzoate] |  |  |  |  |  |  |  | isoTOP-ABPP ratio, lysine Q13561_K175 (DCTN2 Dynactin subunit 2): 0.7; isoTOP-ABPP ratio, lysine Q9NZ08_K685 [1]: 1.5; isoTOP-ABPP ratio, lysine P00367_K480 [2]: 1.5; isoTOP-ABPP ratio, lysine Q8N163_K97 [3]: 0.6; isoTOP-ABPP ratio, lysine Q8N163_K112 [3]: 1.0; isoTOP-ABPP ratio, lysine Q96EL2_K94 [4]: 1.0; isoTOP-ABPP ratio, lysine Q14CX7_K575 [5]: 1.1
2 | O=C(Oc1c(F)c(F)c(F)c(F)c1F)c1cc(C(F)(F)F)cc(C(F)(F)F)c1 [fragment 21, Pentafluorophenyl 3,5-bis(trifluoromethyl)benzoate] |  |  |  |  |  |  |  | R value (DMSO/fragment) for probe 1 labeling (DCTN2 Dynactin subunit 2; Q13561_K175, 50 uM, 231 sol, in vitro): 0.9; R value (DMSO/fragment) for probe 1 labeling ([1]; Q9NZ08_K685, 50 uM, 231 sol, in vitro): 1.4; R value (DMSO/fragment) for probe 1 labeling ([2]; P00367_K480, 50 uM, 231 sol, in vitro): 1.2; R value (DMSO/fragment) for probe 1 labeling ([3]; Q8N163_K97): 0.7; R value (DMSO/fragment) for probe 1 labeling ([3]; Q8N163_K112): 1.0; R value (DMSO/fragment) for probe 1 labeling ([4]; Q96EL2_K94, 50 uM, 231 sol, in vitro): 0.8; R value (DMSO/fragment) for probe 1 labeling ([5]; Q14CX7_K575, 50 uM, 231 sol, in vitro): 0.9; R value (DMSO/fragment) for probe 1 labeling ([6]; Q7L0Y3_K325, 50 uM, 231 sol, in vitro): 0.9
3 | O=C(CCc1cn(-c2ccccc2)nc1-c1ccccc1)Oc1ccc([N+](=O)[O-])cc1[N+](=O)[O-] [fragment 29, 2,4-Dinitrophenyl 3-(1,3-diphenyl-1H-pyrazol-4-yl)propanoate] | 1.3 | 1.0 | 1.9 | 0.8 | 1.2 | 2.2 | 1.1 | isoTOP-ABPP reactivity ratio at lysine Q7L0Y3_K325 ([6]; 50 uM, 231 sol, in vitro): 0.7
4 | O=C(CCc1coc2cc(F)ccc2c1=O)Oc1c(F)c(F)c(F)c(F)c1F [fragment 26, Pentafluorophenyl 3-(7-fluoro-4-oxo-4H-chromen-3-yl)propanoate] | 1.6 | 1.2 | 1.6 | 0.9 | 1.1 | 2.7 | 0.9 | 
5 | NC(=O)c1cc(C(F)(F)F)cc(C(F)(F)F)c1 [fragment 51, reference compound] |  |  |  |  |  |  |  | isoTOP-ABPP ratio, lysine Q13561_K175 (DCTN2 Dynactin subunit 2): 0.9; isoTOP-ABPP ratio, lysine Q9NZ08_K685 [1]: 0.9; isoTOP-ABPP ratio, lysine P00367_K480 [2]: 1.5; isoTOP-ABPP ratio, lysine Q8N163_K97 [3]: 0.8; isoTOP-ABPP ratio, lysine Q8N163_K112 [3]: 0.8; isoTOP-ABPP ratio, lysine Q96EL2_K94 [4]: 0.9; isoTOP-ABPP ratio, lysine Q14CX7_K575 [5]: 1.0; isoTOP-ABPP ratio, lysine Q7L0Y3_K325 ([6]; 50 uM_231_sol_in vitro): 0.9
6 | O=C(CN1C(=O)c2ccccc2C1=O)Oc1c(F)c(F)c(F)c(F)c1F [fragment 27, Pentafluorophenyl 2-(1,3-dioxoisoindolin-2-yl)acetate] | 1.2 | 5.7 | 2.0 | 0.9 | 1.2 | 2.0 | 1.4 | 
7 | Cn1cc(CC(=O)Oc2ccc([N+](=O)[O-])cc2[N+](=O)[O-])c2ccccc21 [fragment 32, 2,4-Dinitrophenyl 2-(1-methyl-1H-indol-3-yl)acetate] | 4.4 | 2.8 | 4.4 | 1.1 | 1.2 | 5.1 | 2.4 | isoTOP-ABPP reactivity ratio at lysine Q7L0Y3_K325 ([6]; 50 uM, 231 sol, in vitro): 1.0
